# According to US12161630B2, “Methods to control infection using new generation small molecule growth inhibitors” (priority 2017, dated 2024):
# Tests used:
# [1] = test system: S. typhimurium WT; assay: MIC and MBC dose-response, serotype Typhimurium; assay type: cell-based, Salmonella enterica subsp. enterica serovar Typhimurium LT2; conditions: for MIC/MBC: Salmonella serotype Typhimurium, MIC identical to MBC
# Experimental: (§1) An overnight Salmonella suspension was normalized at 0.05 OD600 (approximately 3.5×10^7 CFU/ml) with an adjusted M9 minimal broth medium (12.7 mM Na2HPO4 7H2O; 22 mM KH2PO4; 18.7 mM NH4Cl; 2 mM MgSO4; 0.1 mM CaCl2; 0.4% glucose; 0.05% casamino acids). 100 μL of the suspension plus 2 μl of SMs (200 μM) were transferred into each well of a sterile, non-treated, flat bottom 96-well plate. Bacteria alone (negative control, NC), 2% DMSO plus bacteria (DMSO control), 20 μg/ml chloramphenicol or 50 μg/ml kanamycin plus bacteria (positive controls, PC), and M9 medium only were used as control. Plates were incubated in a Sunrise™ Tecan kinetic microplate reader for 12 hrs at 37° C. and the optical density (OD) was measure at 600 nm as described above. Percentage of inhibition=(OD600 SM−OD600 NC)/(OD600 NC)×100. […] Cultures from wells showing no turbidimetric increase were transferred onto a XLT4 agar plate. Plates were incubated at 37° C. for 36 hrs.
# (§2) Screens were performed as described in the primary screen. The lowest SM concentration with a static effect was considered as the minimal inhibitory concentration (MIC) and the lowest SM concentration with a cidal effect was considered as the minimal bactericidal concentration (MBC).
# [2] = test system: Salmonella Albany; assay: MIC and MBC dose-response, serotype Albany; assay type: cell-based, Salmonella enterica; conditions: MIC identical to MBC
# Experimental: as §1, §2
# [3] = test system: S. typhimurium cell membrane and nucleic acids; assay: Confocal microscopy of SM-challenged S. typhimurium (FM4-64, SYTO9); assay type: cell-based, Salmonella enterica subsp. Enterica serotype Typhimurium; conditions: 5×MBC of SMs for 3 hrs; compared to DMSO control
# Source text: FIG. 13. Confocal and scanning electron microscopy (SEM) analyses of Salmonella enterica subsp. Enterica serotype Typhimurium after challenge with five times the minimal bactericidal concentration of small molecules (5×MBC of SMs) for 3 hrs. (A-O) Confocal microscopy: (A-E) S. typhimurium cell membrane stained with FM4-64; (F-J) S. typhimurium nucleic acids stained with SYTO9; (K-O) Merged pictures of the FM4-64 and SYTO9 staining. (P-S) SEM: (P) 1% dimethyl sulfoxide (DMSO) treated Salmonella; (Q) SM1 treated Salmonella; (R) SM4 treated Salmonella; (S) SM5 treated Salmonella; Bar: 1 μm.
# [4] = test system: chicken cecal microbiota; assay: Cecal microbiota 16S rRNA sequencing of SM-treated infected chickens; assay type: in vivo, broiler chickens; conditions: compared to DMSO group (P<0.01)
# Experimental: DNA extraction and sequencing: Microbiota diversity and abundance were investigated using the second cecum directly stored in −80° C. Genomic DNA was extracted using the PureLink Microbiome DNA Purification Kit (Life Technologies, Invitrogen Corp.), combined with RNAse treatment (10 units/hour). About 0.15 g to 0.20 g of cecum content was processed according to manufacturer's instructions. After quality control with electrophoresis and nanodrop, extracted DNA samples were subjected for 16S rRNA V4-V5 variable region sequencing. As a first step of targeted sequencing, amplicon libraries were prepared by using Phusion® High-Fidelity PCR Kit (New England Biolabs Inc, Ipswich, MA) in a 96-well plate. 25 μL of PCR reactions were prepared using 5 μl (5×) of PCR buffer, 4 μl (5 ng/μl) of DNA sample, and 2.5 μl (2 μM) primer, 0.5 μl (10 mM) dNTPs, 0.2 μl of enzyme, and nuclease free water to final volume. The barcoded primers targeted the V4-V5 variable region. […] Sample concentrations were measured, and equal concentration of all samples were pooled into one flow cell and sequenced using Illumina MiSeq 300-base, paired-end kit at the Molecular and Cellular Imaging Center (Ohio Agricultural Research & Development Center, Wooster, OH).
# Bioinformatics analyses: After sequencing, a quality control of the raw reads was performed using FastQC (Babraham Bioinformatics, Cambridge, USA). […] Details concerning the parameters used are described in mcbl.readthedocs.io/en/latest/mcbl-tutorials-AD-clean.html. […] Then samples were processed using Quantitative Insights Into Microbial Ecology (QIIME) software version 1.9 (16). Operational Taxonomy Units (OTUs) were determined by clustering reads against Greengenes 16S reference dataset (2013-08 release) at a 97% identity using open picking reference OTU (pick_open_reference_otus.py) method using default parameters, except setting minimum OTU size to 10. […]
SMILES,"MBC ([1]; Salmonella enterica, TYPHIMURIUM, read-out: MBCAlone of SM) [µM]",MIC/MBC [1] [µM],MIC/MBC [2] [µM],FM4-64 cell membrane staining phenotype [3],abundance of Salmonella OTUs in ceca [4]
"CCOc1cc(/C=N/N=C(N)N)ccc1OCc1ccc(Cl)cc1 [SM5, N″-{4-[(4-chlorobenzyl)oxy]-3-ethoxybenzylidene}carbonohydrazonic diamide]",25,25,100,"stained cell membrane; however, a bright red spot was detected within every bacterium",reduced abundance
"CC1CCC(C(C)C)C(OC(=O)Cn2c[n+](CC(=O)OC3CC(C)CCC3C(C)C)c3ccccc32)C1.[Cl-] (stereo not shown) [SM1, 1,3-bis{2-[(2-isopropyl-5-methylcyclohexyl)oxy]-2-oxoethyl}-1H-3,1-benzimidazol-3-ium chloride]",,50,100,No signal was detected,reduction
"CCCCCCCCCCCCCCCCn1c[n+](C)c2ccccc21.[Br-] [SM4, 1-hexadecyl-3-methyl-1H-3,1-benzimidazol-3-ium bromide]",,10,10,No signal was detected,reduced abundance
"CCCCCCCCCCCCCCCC[n+]1ccn(CC#N)c1.[Cl-] [SM3, 1-(cyanomethyl)-3-hexadecyl-1H-imidazol-3-ium chloride]",,25,25,No signal was detected,
